Test system: skin which had suffered from photoaging
Test: Wrinkle alleviating effect on photoaged (UVA/UVB irradiated) hairless mice: wrinkle score, dermis collagen content, epidermis thickness
Type: in vivo
Excerpt: The wrinkle alleviating effect of the antiwrinkle agent of the present invention when applied to a skin which had suffered from photoaging was examined by the following test method. A group of ten hairless mice which were ten weeks old at the start of the test was used. Photoaging was caused by irradiating the mice with UVA and UVB once a day and five times per week for continuous eight weeks. A UVA dose of 20 J/cm^2 was increased to 25 J/cm^2 and then 30 J/cm^2 every week, and a UVB dose of 20 mJ/cm^2 was increased to 30 mJ/cm^2 and then 40 mJ/cm^2 every week, and the respective maximum doses were used on and after the third week. The wrinkle alleviating effect was evaluated in respect of the wrinkle score, the dermis collagen content and the epidermis thickness. […] Specifically, the wrinkles were macroscopically evaluated with respect to the size and depth and rated in 4 stages: “large and deep wrinkles can be recognized” was rated 3, “some wrinkles can be recognized” was rated 2, “any wrinkles cannot be recognized” was rated 1, and “normal and fine skin is observed” was rated 0. Whole skin was sampled and homogenized by a POLYTRON Homogenizer (manufactured by KINEMATICA AG), and then the collagen fraction was extracted and subjected to acid hydrolysis followed by quantitative determination of a hydroxyproline content using an amino acid analyzer (manufactured by JASCO Corporation). […]

Row | SMILES | Wrinkle alleviating effect on the wrinkles caused by the photoaging (overall conclusion in words) | Epidermis thickness, effect compared to Comparative Example 1 (base only) (result in words)
1 | C=CCc1ccc(O)c(OC)c1 [eugenol] | does not have a wrinkle alleviating effect | –
2 | C=CCc1ccc(O[C@@H]2O[C@H](CO)[C@@H](O)[C@H](O)[C@H]2O)c(OC)c1 [eugenyl glycoside, eugenyl-β-D-glucoside] | – | had no such an action
